Source: PMC8223974, “Anti-Cancer and Immunomodulatory Activity of a Polyethylene Glycol-Betulinic Acid Conjugate on Pancreatic Cancer Cells” (Life, 2021)
Values joined by “and” are separate entries in the source; they are usually repeats but may differ in a detail not shown here. Equal entries are not always repeated.

Assays:
MIA PaCa-2 cells [1] = experiment: XTT cytotoxicity assay on MIA PaCa-2 cells; assay type: cell-based; conditions: 72 h
Description: (§1) The cytotoxic effect of BA and PEG–BA was assessed using the 2,3-bis-(2-methoxy-4-nitro-5-sulfophenyl)-2H-tetrazolium-5-carboxanilide (XTT) assay, an improved tetrazolium dye based assay that obviates the solubilisation step [41]. A concentration of 1 × 10^5 cells/mL each of adherent MIA PaCa-2 and Vero cells were seeded into 96-well plates (BD Biosciences, San Diego, California, USA) overnight before treatment with the compounds at concentrations ranging from 0.4 to 100 µM for 72 h. Doxorubicin (0.2 µg/mL) was used as a positive control for cell death assessment and DMSO was used as a vehicle control. After treatment, washed cells (433× g, 5 min, 25 °C) were exposed to 125 µL of complete DMEM containing 25 µL of XTT solution and incubated (37 °C, 5% CO2, 95% humidity) for 4 h. The optical density of the mixture was measured at 450 nm with a background at 690 nm using a Multiskan Ascent 96/384 microplate reader (Labsystem, Vantaa, Finland). Cell viability was determined as a percentage relative to the vehicle control. The IC50 was then calculated using GraphPad Prism 6 (GraphPad Software, Inc, San Diego, CA, USA). The selectivity index (IC50 Vero cells/IC50 MIA PaCa-2) and potentiation factor (PF50) at 50% growth inhibition (IC50) were also determined. The PF50 is the IC50 value of free drug divided by the IC50 value obtained from a combination of drugs, which is the polymer drug conjugate in this case. Statistical significance was calculated using a two-way analysis of variant (ANOVA) and the Bonferroni post-test to compare replicate means in GraphPad Prism 6 (GraphPad Software, Inc, San Diego, CA, USA). A p < 0.05 was considered to be statistically significant.

Vero cells = experiment: XTT cytotoxicity assay on Vero cells; assay type: cell-based; conditions: 72 h
Description: as §1, with “The selectivity index (IC50 Vero cells/IC50 MIA PaCa-2) and potentiation factor (PF50) at 50% growth inhibition (IC50) were also determined. The PF50 is the IC50 value of free drug divided by the IC50 value obtained from a combination of drugs, which is the polymer drug conjugate in this case.” left out, “A p < 0.05 was considered to be statistically significant.” left out

MIA PaCa-2 cells [2] = experiment: Annexin V-FITC / propidium iodide apoptosis detection by flow cytometry; assay type: cell-based, human; conditions: 4 µM, 72 h
Description: The mode of cell death induced by the BA and PEG–BA on MIA PaCa-2 and Vero cells was assessed using the Annexin V-FITC Apoptosis kit I (BD Biosciences, San Diego, CA, USA). The assay was performed per the manufacturer’s protocol and as previously described with slight modifications. The cells were analysed for apoptosis and necrosis after acquiring 30,000 events using a BD LSRFortessa™ Analyser (BD Biosciences, San Diego, CA, USA). The BD FACSDiva software was used to detect fluorescein isothiocyanate (FITC) positive signals for apoptotic cells (Annexin-v positive) on a 530/30 filter and peridinin–chlorophyll–protein (PerCP) positive signals for necrotic cells (propidium iodide positive) on a 610/20 band pass filter. Apoptosis was determined at three different concentrations around the IC50, 1, 1.7 and 4 µM. Doxorubicin (0.2 ug/mL) was used as a positive control for apoptosis induction. The data were exported as flow cytometry standard (FCS) files and analysed using FlowJo software Version 10 (FlowJo, LLC, Ashland, OR, USA). The data were exported and represented as means ± standard error of three independent experiments using GraphPad Prism 6.

[3] = MTT cytotoxicity assay on PBMCs; assay type: cell-based, human; conditions: human, peripheral blood mononuclear cells (PBMCs), n = 4, read-out: PBMC viability
Description: (§2) The supernatant obtained from PBMCs (1 × 10^6 cells/mL) treated and incubated (72 h, 37 °C, 5% CO2, 95% humidity) with BA and PEG–BA (3 µM) were used for this assay. Cytotoxicity was performed on isolated PBMCs (see Supplementary Materials for isolation protocol) using the 3-(4,5-dimethylthiazol-2-yl)-2,5-diphenyl tetrazolium bromide (MTT) assay as previously described. For the cytometric bead array (CBA) assay, the PBMCs were isolated from both consenting PC patients (n = 4) and healthy control donors (n = 2). Ethics clearance to collect blood samples was obtained from the Human Research Ethics Committee (Medical) of the University of the Witwatersrand (M170440). The PBMCs were stimulated with 2 µg/mL of phytohaemagglutinin-protein (PHA-P). After the 72 h incubation period, the cells and medium were transferred to 5 mL Falcon® round-bottom polypropylene tubes and centrifuged at 433× g for 5 min at room temperature. Aliquots of the cell-free supernatant were collected and stored at −80 °C until needed for experiments.

[4] = test system: peripheral blood mononuclear cells (PBMCs); experiment: MTT cytotoxicity assay on PBMCs; assay type: cell-based, human; conditions: 3 µM
Description: as §2

IL-6 = experiment: Cytometric bead array Th1/Th2/Th17, IL-6 in supernatant of PHA-P stimulated PBMCs; assay type: cell-based, human; conditions: 3 µM, 72 h
Description: as §2, with “After the 72 h incubation period, the cells and medium were transferred to 5 mL Falcon® round-bottom polypropylene tubes and centrifuged at 433× g for 5 min at room temperature. Aliquots of the cell-free supernatant were collected and stored at −80 °C until needed for experiments.” left out
The CBA Th1/Th2/Th17 assay was performed according to the manufacturer’s instructions (BD Biosciences, La Jolla, San Diego, CA, USA) and as previously described, but with minor modifications. […] Specific fluorescence associated with each bead population was detected using flow cytometry allowing for the identification of the various cytokines in the sample. […] Acquired FCS files were analysed using a flow cytometric analysis software (FCAPArray™) from BD Biosciences. Interferon-gamma (IFN-γ), TNF-α, IL-2, IL-4, IL-6, IL-10 and IL-17A concentrations were all determined from standard curves. […]

Row | Structure (SMILES) | IC50 (MIA PaCa-2 cells [1]; Homo sapiens, MIA PaCa-2 cells, XTT) | selectivity index (SI) (IC50 Vero cells/IC50 MIA PaCa-2) (MIA PaCa-2 cells [1]; Vero vs MIA PaCa-2, XTT) | IC50 (Vero cells; Primates, XTT) | highest apoptotic effect (mainly late-apoptotic phase) (MIA PaCa-2 cells [2]) | viability at 72 h, 3 µM [3] | cytotoxicity on PBMCs [4] | IL-6 concentration (IL-6; PBMCs of PC patients (n = 4), average) | IL-6 concentration (IL-6; PBMCs of control participants (n = 2)) | cell death (cytotoxicity) (MIA PaCa-2 cells [1]; MIA PaCa-2 cells, 0.2 µg/mL (0.4 µM)) | cell death (cytotoxicity) (Vero cells; 0.2 µg/mL (0.4 µM))
1 | C=C(C)[C@@H]1CC[C@]2(C(=O)O)CC[C@]3(C)[C@H](CC[C@@H]4[C@@]5(C)CC[C@H](O)C(C)(C)[C@@H]5CC[C@]43C)[C@@H]12 [BA, betulinic acid] | 12.7 ± 0.34 µM | 1.4 and 1.43 | 18.2 ± 0.09 µM | 31.43 ± 16.7% | 9.2 ± 0.8% | 49.2 ± 0.8% | 5430.94 pg/mL | 396.24 pg/mL |  | 
2 | COc1cccc2c1C(=O)c1c(O)c3c(c(O)c1C2=O)C[C@@](O)(C(=O)CO)C[C@@H]3O[C@H]1C[C@H](N)[C@H](O)[C@H](C)O1 [Doxorubicin] |  |  |  |  |  |  |  |  | 83.3 ± 1.6% | 43.24 ± 14.2%
